# Results published in paper PMC6941823, “A dispensable paralog of succinate dehydrogenase subunit C mediates standing resistance towards a subclass of SDHI fungicides in Zymoseptoria tritici” (PLoS Pathogens, 2019).
# Target: C_A84I-SQR (SDHC_A84I), IPO323_Flu21 mitochondria (Zymoseptoria tritici, UniProt F9X9V6+F9XH52+O42772, A84I)
# Test: Succinate-quinone (SQR) SDHI sensitivity assay on purified mitochondria, IPO323_Flu21
# Assay type: biochemical
# Details: mitochondria of UV mutant IPO323_Flu21; mean of three ± SD
# Procedure: Succinate-ubiquinone oxidoreductase (SQR) inhibition assays were performed on mitochondrial extracts from a panel of strains that were (i) either carrying a unique C-subunit encoding gene (ZtSDHC1, ZtSDHC1_A84I or Zt-SDHC3), or (ii) carrying two C-subunit encoding genes ZtSDHC1 and ZtSDHC3 (Table 1).
# Biomass production, mitochondrial extraction and purification were performed as described in [14]. Succinate: ubiquinone/DCPIP sensitivity tests were performed as described in [14] with minor modification. The different mitochondrial suspensions were adjusted to similar initial velocity (1 OD595nm hour^-1) and inhibitor concentrations ranged between 0.047nM and 50μM with uniform 4x dilution steps (11 concentrations + DMSO control). Calculated absorbance slopes (OD/min) were used for IC50 calculations using GraphPad Prism 6.07 software non-linear curve fitting against log inhibitor concentrations.
row,SMILES,IC50 [nM]
1,O=C(NCCc1ncc(C(F)(F)F)cc1Cl)c1ccccc1C(F)(F)F [Fluopyram],1440 ± 354
2,CON(C(=O)c1cn(C)nc1C(F)F)[C@@H](C)Cc1c(Cl)cc(Cl)cc1Cl [Pydiflumetofen],2 ± 0.4
3,CON(C(=O)c1cn(C)nc1C(F)F)[C@@H](C)Cc1ccc(Cl)cc1Cl [Compound 3],28 ± 7.3
4,C[C@@H](Cc1ccc(Cl)cc1Cl)NC(=O)c1cn(C)nc1C(F)F [Compound 2],780 ± 157
5,Cc1cc(OC(C)C)ccc1C(=O)C(C)(C)NC(=O)c1sccc1C [Isofetamid],21400 ± 4550
6,CC1=C(C(=O)Nc2ccccc2)SCCO1 [Carboxin],1150 ± 153
7,CC(C)CC(C)c1sccc1NC(=O)c1cn(C)nc1C(F)(F)F (stereo not drawn) [Penthiopyrad],4.6 ± 1.7
8,Cn1cc(C(=O)NCCc2ccc(Cl)cc2Cl)c(C(F)F)n1 [Compound 1],2570 ± 239
9,O=C(Nc1ccccc1-c1ccc(Cl)cc1)c1cccnc1Cl [Boscalid],62 ± 19.2
